{"source": "patent US8242115B2", "about": "“Materials and methods to potentiate cancer treatment” (Luitpold Pharmaceuticals, Inc., priority 2000, dated 2012)", "key": {"[1]": {"target": "T1, human DNA-PK (Homo sapiens, UniProt P78527)", "T1 construct": "The frozen HeLa cell pellet was thawed at 37° C. and immediately centrifuged; endogenous in cells; host or cells: HeLa S3 cells (ATCC CCL-2.2); Endogenous enzyme purified via S100-2 fraction, Q-Sepharose FF and SP-Sepharose FF (fraction IV)", "assay": "Standard DNA-PK assay (p53 peptide phosphorylation)", "format": "biochemical", "details": "read-out: IC50 (nM) DNA-PK Assay", "procedure": "Reactions were carried out at room temperature. Reactions were started by addition of ATP and stopped by application to phosphocellulose paper. Reaction products spotted onto phosphocellulose paper were washed five times with a total volume of at least 250 mL 10% acetic acid or 150 mM phosphoric acid. The paper was air dried and radioactivity was determined in a Beckman LS6000IC scintillation counter."}, "[2]": {"tested_on": "thymocytes from BALB/c and BALB/c p53-/p53- mice; HL60, Jurkat, JY, B16/F10, WS1", "assay": "Cell viability, trypan blue exclusion assay", "format": "cell-based, human and mouse", "details": "up to 32 μM (thymocytes), up to 25 μM (cell lines), several days", "procedure": "Cell viability was also tested during drug treatment using the trypan blue exclusion assay. […] Cultured cells were incubated in the presence of varying concentrations of 2-hydroxy-4-morpholin-4-yl-benzaldehyde up to 32 μM. Cultured human and mouse cell lines were incubated in RPMI 1640 media containing 10% FBS, 100 U/mL penicillin and 100 μg/mL streptomycin at 37° C. with 5% CO2 in a humidified incubator with 2-hydroxy-4-morpholin-4-yl-benzaldehyde for several days. Tumor cell lines, HL60, Jurkat, JY and B16/F10 and the normal cell line WS1 were tested using this assay when incubated at drug concentrations up to 25 μM."}, "[3]": {"tested_on": "DR3 cells (cultured mouse B-lymphocytes)", "assay": "V(D)J recombination assay", "format": "cell-based", "details": "50 μM", "procedure": "Recombination assays were performed as previously described (Leu et al., Mol. Cell. Biol 15:5657-5670 (1995)). […] Cells were concentrated and washed in HBS (containing 30 mM HEPES-KOH, pH 7.5, 140 mM NaCl, and 5 mM KCl) and resuspended in HBS at a density of 2.0×10^8 cells/mL. Cells (1.0×10^7) were transiently transfected by electroporation with 10 μg of the recombination substrate pJH200 (Leu et al., Mol. Cell. Biol. 15:5657-5670 (1995)) and transferred to a 90 mm cell culture dish containing 8 mL media with or without 2-hydroxy-4-morpholin-4-yl-benzaldehyde as described above. After 2 days, cells were removed from the dish with a rubber policeman, concentrated, washed one time with PBS, and resuspended in 0.1 mL lysis buffer (0.3% Triton X-100, 50 mM Tris-HCl, pH 7.5, 50 mM EDTA). Following a five min incubation at room temperature, cellular debris was removed by centrifugation at 12,000 rpm for two min in a microfuge. The supernatant was extracted sequentially with phenol and chloroform/[…] (24:1), after which, one tenth volume 3 M sodium acetate and 2 volumes cold 100% ethanol were added to the aqueous phase. Precipitated nucleic acid was collected by centrifugation at 12,000 rpm for 15 min and suspended in 25 μL water. An aliquot of the material was used to transform DH5α cells by electroporation. […]"}, "[4]": {"tested_on": "HCT116 cells (human colon carcinoma) xenograft tumors", "assay": "Animal tumor model, drug plus γ-radiation", "format": "in vivo, athymic BALB/c (nu/nu) mice", "design": "tumor growth with radiation plus drug: dose or concentration left out as unconfirmed", "procedure": "HCT116 cells (human colon carcinoma) were used to propagate xenograft tumors in 6-8 week old female athymic BALB/c (nu/nu) mice. Mice were maintained in a laminar airflow cabinet under pathogen-free conditions and fed sterile food and water ad libitum. HCT116 cells were grown to subconfluence in McCoy's media supplemented with 10% FBS, 100 U/mL penicillin, 100 μg/mL streptomycin, and 1.5 mM L-glutamine in a 5% CO2 humidified environment. Single cell suspensions were prepared in CMF-PBS (0.9 mM KCl, 2.7 mM KH2PO4, 13.8 mM NaCl, pH 7.5), and cell concentration adjusted to 4×10^7 cells/mL. Mice were inoculated subcutaneously (s.c.) on the right flank or right leg with a total of 4×10^6 cells (100 μL).\nMice were randomized (5 mice/group) into four treatment groups and used when tumors reached a weight of 75 to 100 mg (usually 7 to 11 days post-inoculation). Tumors were measured with vernier calipers and tumor weights were estimated using the empirically-derived formula below. Tumor weight(mg)=tumor length(mm)×tumor width(mm)^2/3.3. […] Tumor size was monitored every other day for the duration of the experiment."}, "[5]": {"assay": "Pharmacokinetic analysis after subcutaneous administration", "format": "in vivo, mice"}, "[6]": {"tested_on": "Colon carcinoma cells (HCT116)"}, "[7]": {"tested_on": "cultured human tumor cell lines (Table 4) and normal human fibroblast cell line MRC5", "assay": "Cellular toxicity, MTS dye metabolism assay", "details": "200 μM continuously for 48 h", "method": "Cultured cells were distributed on 96-well microtiter plates and allowed to adhere for at least 16 h."}, "[8]": {"tested_on": "MDA-MB231 (human breast carcinoma) cells", "assay": "DNA double-strand break repair assay (pulse field electrophoresis)", "format": "cell-based", "details": "25 Gy; concentrations which enhanced radiation induced cell killing", "procedure": "To further determine the cellular effect of DNA-PK inhibitors, an assay to measure chromosomal discontinuities was employed. Ionizing radiation induces chromosomal DNA double-strand breaks. Following high dose radiation, chromosomes can be extracted from cells and fractionated by pulse field electrophoresis to distinguish chromosomal fragments from intact larger chromosomes. Using this technique, the activity of DNA-PK inhibitors was measured.\nMDA-MB231 (human breast carcinoma) cells were seeded onto T25 flasks with RPMI1640+10% FBS, 2 mM L-glutamine, penicillin G 100 U/ml-streptomycin sulfate 10 μg/ml, 1 mM Na pyruvate. When confluent, media was removed and replaced with media containing DNA-PK inhibitor or vehicle. Cells were incubated at 37° C. for 1 hr in a humidified chamber with 5% CO2. Media then was removed and flasks were filled with ice-cold D-PBS and either: (a) processed immediately; (b) irradiated (25 Gy in a ^137Cs Mark I irradiator at a flux of 335 rad/min) and processed immediately; (c) irradiated and incubated for 2 hr in complete RPMI1640+vehicle at 37° C. (in humidified 5% CO2 atmosphere to allow for DNA repair), or (d) irradiated and incubated for 2 hr in complete RPMI1640+DNA-PK inhibitor compound. […] Chromosomal DNA was visualized with SYBR-Gold (Molecular probes # S-11494) and the fluorescent image quantified on the STORM 860 (Molecular Dynamics)."}, "[9]": {"tested_on": "human colon carcinoma cell line HCT116", "assay": "cells", "format": "cell-based", "procedure": "Cells plated at a density of 5,000 to 20,000 per well in 96-well microtiter plates were grown in RMPI 1640 containing 10% FBS, 100 U/mL penicillin and 100 μg/mL streptomycin, for 18 h at 37° C. in a humidified incubator with 5% CO2. Cells tested included ACHN, 786-0, HCT-116, SW620, SK-MEL-5, SK-MEL-28, A549, H322, OVCAR-3, SK-OV-3, MCF-7, MDA-MB-231, MOLT4, HL60, SNB-19, PC-3. Cells were treated with media containing chemotherapeutic drugs alone or with media containing chemotherapeutic drugs and a DNA-PK inhibitor of the invention, 1-(2-hydroxy-4-morpholin-4-yl-phenyl)-ethanone. Cells were incubated for two days before growth was measured using a tetrazolium dye assay (MTS). Chemotherapeutic drugs included bleomycin etoposide, vinblastine, doxorubicin, paclitaxel, cisplatin, chlorambucil, cyclophosphamide, 5-fluorouracil, cytosine-arabinoside, 6-mercaptoguanine and methotrexate (all purchased from Sigma). The drug concentration necessary to inhibit cell growth to 50% of untreated control cells was defined as the GI50."}}}
{"smiles": "O=Cc1ccc(N2CCOCC2)cc1O", "note": "[Example 32, 2-Hydroxy-4-morpholin-4-yl-benzaldehyde]", "values": [{"measurement": "IC50", "setting": "[1]", "value": 400, "unit": "nM"}, {"measurement": "cells sensitive to killing, trypan blue exclusion method", "setting": "[2]", "value": "In no instances were cells sensitive to killing"}, {"measurement": "DNA rearrangement (V(D)J recombination) inhibited", "setting": "[3]", "value": 8, "unit": "fold"}, {"measurement": "tumors shrank", "setting": "[4]; average tumor burden 500 mg, drug and 300 rad once daily for two days", "value": "greater than 10 fold"}, {"measurement": "duration of high plasma concentration", "setting": "[5]", "value": "remained high for about one hour"}, {"measurement": "sensitivity of HCT116 to killing by γ-radiation", "setting": "[6]; 200 μM", "value": "increased the sensitivity"}, {"measurement": "killing of cell lines, MTS dye metabolism assay", "setting": "[7]", "value": "no evidence of killing"}]}
{"smiles": "CC(=O)c1ccc(N2CCOCC2)cc1O", "note": "[Example 34, 1-(2-Hydroxy-4-morpholin-4-yl-phenyl)-ethanone]", "values": [{"measurement": "IC50", "setting": "[1]", "value": 120, "unit": "nM"}, {"measurement": "chromosomal DNA double-strand break repair", "setting": "[8]", "value": "inhibited DNA double-strand break repair"}, {"measurement": "GI50 (bleomycin) reduced", "setting": "[9]; 100 μM inhibitor, two days", "value": 7, "unit": "fold"}, {"measurement": "potentiation of growth inhibitory effects of agents that do not induce DNA dsbs", "setting": "[9]; vinblastine, doxorubicin, paclitaxel, cisplatin, cyclophosphamide, 5-fluorouracil, cytosine-arabinoside, 6-mercaptoguanine, methotrexate", "value": "did not potentiate"}, {"measurement": "chlorambucil GI50 reduced", "setting": "[9]; with inhibitor, two days", "value": 10, "unit": "fold"}, {"measurement": "etoposide GI50 reduced", "setting": "[9]; with inhibitor, two days", "value": 10, "unit": "fold"}, {"measurement": "tumor growth with radiation plus drug", "setting": "[4]; 250 rad plus drug once daily for five days", "value": "no increase in tumor growth"}, {"measurement": "duration of high plasma concentration", "setting": "[5]", "value": "remained high for about one hour"}, {"measurement": "effect of drug alone on cell division", "setting": "[6]", "value": "no effect on cell division"}, {"measurement": "enhancement of etoposide LD50", "setting": "[6]", "value": 15, "unit": "fold"}, {"measurement": "enhancement of etoposide LD90", "setting": "[6]", "value": 3, "unit": "fold"}, {"measurement": "radiation LD50 lower than in the absence of drug", "setting": "[6]; 200 μM", "value": 4, "unit": "fold"}, {"measurement": "radiation LD90 lower than without drug", "setting": "[6]; 200 μM", "value": 4, "unit": "fold"}, {"measurement": "sensitivity of HCT116 to killing by γ-radiation", "setting": "[6]; 200 μM", "value": "increased the sensitivity"}, {"measurement": "radiation dosage which kills 50% of the cells (LD50) in the presence of drug", "setting": "[6]; 200 μM, 150 rad without drug", "value": 35, "unit": "rad"}, {"measurement": "radiation dose that kills 90% of the cells (LD90) with drug", "setting": "[6]; 200 μM, 410 rad without drug", "value": 100, "unit": "rad"}, {"measurement": "D0, slope of the survival curve, with drug", "setting": "[6]; 150 rad without drug", "value": 50, "unit": "rad"}]}
